These are literature values, as cited in patent publication US20240180159A1, “NEW OIL SUSPENSION CONCENTRATE COMPOSITION” (SYNGENTA CROP PROTECTION AG, priority 2021, published 2024).

The conditions of this data set: basic pH 8-14 conditions.

SMILES strings stand for the structures.

With `CN1COCN(Cc2cnc(Cl)s2)/C1=N\[N+](=O)[O-]` [thiamethoxam], the susceptibility to hydrolysis entry was “susceptible to hydrolysis”.
